In patent US8163702B2, “Treatment of melanoma” (SciClone Pharmaceuticals, Inc., priority 2006, dated 2012):
“And” between values parts separate entries of the source, which are not always exact repeats. Equal values may be shown once.

Assays:
B16 melanoma = B16 melanoma tumor growth, tumor weight and survival in C57/Bl6 mice, i.p. treatment (Example 1); type: in vivo; details: DTIC 50 mg/kg i.p.
Experimental: Tumors were induced by injecting 1×10^6 B16 melanoma cells subcutaneously in the hind leg of C57/Bl6 syngeneic mice. Mice were randomized into 5 groups of 10 animals and treated with SCV-07 at doses of 0.001, 0.01, or 0.10 mg/kg administered daily i.p. for 3 consecutive days for 2 weeks, starting 3 days after tumor implantation. Control groups were treated with saline or dacarbazine (DTIC) at a dose of 50 mg/kg i.p. for 3 days. Tumor growth was assessed every 3 days by a caliper and tumor weight was measured upon death.
Mice were injected with B16 melanoma cells and divided into 5 groups of 10 mice each. Control mice were given injections of saline or dacarbazine (DTIC). The effects of different doses of SCV-07 were examined with respect to tumor growth rate and survival time.

murine B16 melanoma = assay: Antitumor effect in murine B16 melanoma model, tumor size and tumor weight (Example 2); type: in vivo, C57BL/6 mice; details: for Tumor volumes (cm^3) on Day 15: Length × Width × Width/2; for Tumor measurements L / Tumor measurements W / Tumor volumes: DTIC 50 mg/kg
Experimental: As per aseptic tissue culture procedures, one vial of B16 melanoma cells (supplied by Cell Culture Center of CAMS) was thawed and centrifuged at 1000 rpm, 20-25° C. for 5 minutes. The cell pellets were suspended in 0.1-0.5 mL normal saline (NS) and subcutaneously injected into the right axilla of each mouse (approximately 1×10^6 cells/mouse). When the tumor diameter was 1 cm approximately (measured by vernier caliper), the animals were euthanized with CO2 asphyxiation and the tumor was excised. Tumor cells were suspended in normal saline as previously described and the cell adaptation cycle was repeated once.
On Day 0, 1×10^6 B16 cells in a volume of 0.1 mL normal saline were subcutaneously injected into the right axillary area of the mouse. The day of tumor inoculation was defined as Day 0.
Dosing was initiated on Day 1.
Observations were recorded daily for mortality and moribundity. […] The tumors were excised, separated, and weighed.
Tumor volume was calculated using the following formula: Tumor Volume=Length×Width×Width/2 Tumor volume inhibition rate (IR) was calculated according to the formula: IR(TV)=(TVvehicle−TVdrug treated)/TVvehicle×100% TV is the tumor volume on the day of measurement.
The antitumor effect of the test article was also evaluated by tumor weight. The tumor weight of each mouse was recorded after euthanasia, and the inhibition rate of tumor weight was calculated according to the formula: IR(TW)=(Tumor weightvehicle−Tumor weightdrug treated)/Tumor weightvehicle×100%

[1] = DTIC 50 mg/kg (Group 2), Day 15, individual animals F1-F5, M1-M5

CN(C)/N=N/c1[nH]cnc1C(N)=O [DTIC, Dacarbazine, reference compound]
MEAN TUMOR VOLUME (B16 melanoma; DAY 10 after tumor inoculation): 480 ± 13 mm^3
MEAN TUMOR VOLUME (B16 melanoma; DAY 17 after tumor inoculation): 545 ± 170 mm^3
DAY 24 % of control (inhibition in tumor growth) (B16 melanoma; DAY 24): 19%
MEAN TUMOR VOLUME (B16 melanoma; DAY 24 after tumor inoculation): 760 ± 220 mm^3
mean tumor weight lower (B16 melanoma): 15%
Tumor volumes (cm^3) on Day 15 (murine B16 melanoma; DTIC 50 mg/kg (Group 2), Day 15, individual animals F1-F5, M1-M5, female animals): 0.36 cm^3 and 0.15 cm^3 and 0.11 cm^3 and 0.01 cm^3
Tumor volumes (cm^3) on Day 15 (murine B16 melanoma; DTIC 50 mg/kg (Group 2), Day 15, individual animals F1-F5, M1-M5, male animals): 0.03 cm^3 (2×) and 0.06 cm^3 and 0.17 cm^3 and 0.01 cm^3
Tumor measurements (cm) on Day 15, L (murine B16 melanoma; [1]): 0.3 cm (2×) and 0.4 cm (2×) and 0.7 cm and 0.9 cm and 0.5 cm and 1.2 cm and 0.6 cm
Tumor measurements (cm) on Day 15, W (murine B16 melanoma; [1]): 0.3 cm (2×) and 0.4 cm (2×) and 0.7 cm and 0.5 cm (2×) and 0.9 cm and 0.6 cm
Tumor weights (g) on Day 17 (murine B16 melanoma; DTIC 50 mg/kg (Group 2), Day 17, individual animals F1-F5, M1-M5, female animals): 0.70 g and 0.29 g and 0.98 g and 0.78 g and 0.5 g
Tumor weights (g) on Day 17 (murine B16 melanoma; DTIC 50 mg/kg (Group 2), Day 17, individual animals F1-F5, M1-M5, male animals): 0.46 g and 0.54 g and 0.37 g and 0.915 g and 0.18 g
Tumor Volume (Mean ± SD) (murine B16 melanoma; Day 3, DTIC 50 mg/kg/day, not measurable defined as 0): 0 cm^3
Tumor Volume (Mean ± SD) (murine B16 melanoma; Day 6, DTIC 50 mg/kg/day, not measurable defined as 0): 0 cm^3
IR (tumor volume inhibition rate) (murine B16 melanoma; Day 9, DTIC 50 mg/kg/day): 96.9%
Tumor Volume (Mean ± SD) (murine B16 melanoma; Day 9, DTIC 50 mg/kg/day): 0.001 ± 0.004 cm^3
Tumor measurements L (murine B16 melanoma; Day 9, mouse F2): 0.3 cm
Tumor measurements W (murine B16 melanoma; Day 9, mouse F2): 0.3 cm
Tumor volumes (murine B16 melanoma; Day 9, mouse F2): 0.01 cm^3
IR (tumor volume inhibition rate) (murine B16 melanoma; Day 12, DTIC 50 mg/kg/day): 98.8%
Tumor Volume (Mean ± SD) (murine B16 melanoma; Day 12, DTIC 50 mg/kg/day): 0.009 ± 0.020 cm^3
Tumor measurements L (murine B16 melanoma; Day 12, mouse F1): 0.3 cm
Tumor measurements W (murine B16 melanoma; Day 12, mouse F1): 0.3 cm
Tumor volumes (murine B16 melanoma; Day 12, mouse F1): 0.01 cm^3
Tumor measurements L (murine B16 melanoma; Day 12, mouse F3): 0.1 cm
Tumor measurements W (murine B16 melanoma; Day 12, mouse F3): 0.1 cm
Tumor volumes (murine B16 melanoma; Day 12, mouse F3): 5E−04 cm^3
Tumor measurements L (murine B16 melanoma; Day 12, mouse F4): 0.3 cm
Tumor measurements W (murine B16 melanoma; Day 12, mouse F4): 0.3 cm
Tumor volumes (murine B16 melanoma; Day 12, mouse F4): 0.01 cm^3
Tumor measurements L (murine B16 melanoma; Day 12, mouse F5): 0.1 cm
Tumor measurements W (murine B16 melanoma; Day 12, mouse F5): 0.1 cm
Tumor volumes (murine B16 melanoma; Day 12, mouse F5): 5E−04 cm^3
Tumor measurements L (murine B16 melanoma; Day 12, mouse M2): 0.5 cm
Tumor measurements W (murine B16 melanoma; Day 12, mouse M2): 0.5 cm
Tumor volumes (murine B16 melanoma; Day 12, mouse M2): 0.06 cm^3
IR (tumor volume inhibition rate) (murine B16 melanoma; Day 15, DTIC 50 mg/kg/day): 95.1%
Tumor Volume (Mean ± SD) (murine B16 melanoma; Day 15, DTIC 50 mg/kg/day): 0.095 ± 0.112 cm^3
IR (inhibition rate of tumor weight) (murine B16 melanoma; Day 17, DTIC 50 mg/kg/day): 85.0%
Tumor Weight (Mean ± SD) (murine B16 melanoma; Day 17, DTIC 50 mg/kg/day): 0.57 ± 0.27 g
